# According to US8372864B2, “1-oxo-isoindoline-4-carboxamide and 1-oxo-1,2,3,4-tetrahydroisoquinoline-5-carboxamide derivatives, preparation and therapeutic use thereof” (Sanofi, priority 2007, dated 2013):
# pIC50: −log10 of the molar value. Where a name gives a salt, the structure may show the parent alone.
# Tests used:
# [1] = biological target: T1, purified recombinant form of human BACE1 aspartyl protease (Homo sapiens, UniProt P56817); experiment: in vitro inhibition of β-secretase (BACE1) activity, FRET cleavage of fluorogenic peptide substrate FS1; format: biochemical; details: purified enzyme 10 nM, substrate FS1 5 μM, sodium acetate buffer pH 4.5, 37° C., 45 minutes; read-out: IC50 (concentration of product giving 50% inhibition of the enzyme activity)
# T1 construct: hexahistidine (C); made in house; host or cells: Drosophila cells
# Experimental: The tests consisted in measuring the in vitro inhibition of the β-secretase activity by the compounds of the invention.
# The β-secretase activity measured corresponds to that of a purified recombinant form of human BACE1 aspartyl protease (the latter comprising a hexahistidine tag at the C-terminal position) produced by expression in Drosophila cells. The purified enzyme is conditioned in TRIS buffer (18 mM) at pH 7.5 containing NaCl (0.45M), MnCl2 (0.9 mM), CaCl2 (0.9 mM), α-D-methylmannoside and 10% glycerol, and stored at −80° C. until use.
# The BACE1 activity is measured from the cleavage of a fluorogenic peptide substrate, known as FS1, described originally by Ermolieff et Coll. (2000, Biochemistry, 39, 12450-12456), and based on the principle of fluorescence resonance energy transfer (FRET); the cleavage of the FS1 peptide is measured from the increase of the fluorescent signal emitted by the EDANS (or 5-[(2-aminoethyl)amino]naphthalene-[…]) group. The test is carried out in a 96-well microplate in order to determine the inhibition of the enzyme activity by the products of the invention. The substrate FS1 is solubilized to a concentration of 1 mM in 100% dimethylsulfoxide (DMSO) and stored at −20° C. until use. The dilutions of the products to be tested are prepared in DMSO starting from a 10 mM stock solution. The products of the invention, at final concentrations of 0.003 to 10 μM are incubated at 37° C. with the substrate FS1 (final concentration of 5 μM) and the purified enzyme (final concentration of 10 nM) in the sodium acetate buffer (0.1M), pH 4.5 containing 0.02% of CHAPS detergent and 200 mM NaCl for 45 minutes. […] When the incubation is finished, the fluorescence is measured in a spectrofluorimeter, at the excitation wavelength of 355 nm and emission wavelength of 509 nm. For each product concentration tested, the fluorescent signal is compared to the maximum signal obtained when the substrate FS1 is only incubated with the enzyme.
# The inhibitory activity of the products of the invention is then evaluated by the measurement of the IC50 (concentration of product giving 50% inhibition of the enzyme activity) using a non-linear regression analysis (computer application software XLfit, IDBS™).
# T1 sequence (P56817 46-501): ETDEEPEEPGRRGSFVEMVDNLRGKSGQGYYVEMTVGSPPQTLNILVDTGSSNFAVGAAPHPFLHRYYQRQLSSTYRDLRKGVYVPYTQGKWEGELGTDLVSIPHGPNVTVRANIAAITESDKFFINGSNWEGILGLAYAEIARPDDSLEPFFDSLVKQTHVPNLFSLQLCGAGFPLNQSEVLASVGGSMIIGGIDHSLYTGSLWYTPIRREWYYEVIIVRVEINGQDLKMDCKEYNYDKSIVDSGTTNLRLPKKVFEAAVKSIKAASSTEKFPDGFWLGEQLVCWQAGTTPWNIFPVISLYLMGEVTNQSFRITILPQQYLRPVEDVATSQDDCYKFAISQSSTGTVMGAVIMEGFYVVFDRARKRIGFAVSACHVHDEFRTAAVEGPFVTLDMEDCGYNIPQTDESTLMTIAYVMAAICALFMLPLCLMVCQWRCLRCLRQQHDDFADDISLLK
melting point,pIC50 [1],SMILES
157 °C,–,CC(c1ccc(F)cc1)N1CCc2c(C(=O)N[C@@H](Cc3cc(F)cc(F)c3)[C@H](O)CNC3(c4cccc(C(F)(F)F)c4)CC3)cccc2C1=O.Cl (some centres unmarked)
194 °C,–,CCCC(CCC)N1Cc2c(C(=O)N[C@@H](Cc3cc(F)cc(F)c3)[C@H](O)CNC3(c4cccc(C(F)(F)F)c4)CC3)cc(N(C)S(C)(=O)=O)cc2C1=O.Cl
196 °C,–,CCCC(CCC)N1CCc2c(C(=O)N[C@@H](Cc3cc(F)cc(F)c3)[C@H](O)CNC3(c4cccc(C(F)(F)F)c4)CC3)cc(C(F)(F)F)cc2C1=O.Cl
174 °C,–,CCCC(CCC)N1CCc2c(C(=O)N[C@@H](Cc3ccccc3)[C@H](O)CNC3(c4cccc(C(F)(F)F)c4)CC3)cccc2C1=O.Cl
172 °C,–,CCCC(CCC)N1CCc2c(C(=O)N[C@@H](Cc3cc(F)cc(F)c3)[C@H](O)CNC3(c4cccc(C(F)(F)F)c4)CC3)cccc2C1=O.Cl
178 °C,–,Cl.O=C(N[C@@H](Cc1cc(F)cc(F)c1)[C@H](O)CNC1(c2cccc(C(F)(F)F)c2)CC1)c1cccc2c1CCN(Cc1ccccc1)C2=O
165 °C,–,CCCCCN1CCc2c(C(=O)N[C@@H](Cc3cc(F)cc(F)c3)[C@H](O)CNC3(c4cccc(C(F)(F)F)c4)CC3)cccc2C1=O.Cl
–,6.11,"CCCC(CCC)N1Cc2c(C(=O)N[C@@H](Cc3ccccc3)[C@H](O)CNCc3cccc(C(F)(F)F)c3)cccc2C1=O [Compound 1, N-[(1S,2R)-1-benzyl-2-hydroxy-3-{[3-(trifluoromethyl)benzyl]amino}propyl]-1-oxo-2-(1-propylbutyl)isoindoline-4-carboxamide hydrochloride (1:1)]"
–,7.32,"CCCC(CCC)N1CCc2c(C(=O)N[C@@H](Cc3cc(F)cc(F)c3)[C@H](O)CNC3(c4cccc(C(F)(F)F)c4)CC3)cc(N(C)S(C)(=O)=O)cc2C1=O [Compound 9, N-[(1S,2R)-1-(3,5-difluorobenzyl)-2-hydroxy-3-({1-[3-(trifluoromethyl)phenyl]cyclopropyl}amino)propyl]-7-[methyl(methylsulfonyl)amino]-1-oxo-2-(1-propylbutyl)-1,2,3,4-tetrahydroisoquinoline-5-carboxamide hydrochloride (1:1)]"
–,6.41,"CCCC(CCC)N1CCc2c(C(=O)N[C@@H](Cc3cc(F)cc(F)c3)[C@H](O)CNC3(c4cccc(C(F)(F)F)c4)CC3)cc(-c3cccc(C#N)c3)cc2C1=O [Compound 16, N-[(1S,2R)-1-(3,5-difluorobenzyl)-2-hydroxy-3-({1-[3-(trifluoromethyl)phenyl]cyclopropyl}amino)propyl]-7-(3-cyanophenyl)-1-oxo-2-(1-propylbutyl)-1,2,3,4-tetrahydroisoquinoline-5-carboxamide hydrochloride (1:1)]"
–,6.20,"CCCC(CCC)N1CCc2c(C(=O)N[C@@H](Cc3cc(F)cc(F)c3)[C@H](O)CNC3(c4cccc(C(F)(F)F)c4)CC3)cc(-c3ccccc3C#N)cc2C1=O [Compound 17, N-[(1S,2R)-1-(3,5-difluorobenzyl)-2-hydroxy-3-({1-[3-(trifluoromethyl)phenyl]cyclopropyl}amino)propyl]-7-(2-cyanophenyl)-1-oxo-2-(1-propylbutyl)-1,2,3,4-tetrahydroisoquinoline-5-carboxamide hydrochloride (1:1)]"
